According to paper PMC6614837 (Nucleic Acids Research, 2019):

Assays:
[1] = system: 3'-biotinylated minihelix (Mh; pMini3bpUG) (RNA, hairpin) GAUCUGAAUGCGGAAACGCGCCAC; experiment: biolayer interferometry; settings: Mg2+ 10 mM, NH4+ 100 mM (ammonium acetate); 20 mM HEPES pH 7.4, DMSO, 30°C; compound 15.6-500 µM
[2] = target: T1, RNase P holoenzyme from Thermotoga maritima (Thermotoga maritima, UniProt Q9X1H4); experiment: Real-time fluorescence-based (FRET) RNase P activity assay with minihelix (Mh) substrate; assay type: biochemical; settings: fluorescent Mh substrate 270 nM, holoenzyme 33 nM, 10% DMSO, 37°C, 400 mM AmOAc, 100 mM MgCl2
T1 construct: made in house
T1 sequence (Q9X1H4 1-117): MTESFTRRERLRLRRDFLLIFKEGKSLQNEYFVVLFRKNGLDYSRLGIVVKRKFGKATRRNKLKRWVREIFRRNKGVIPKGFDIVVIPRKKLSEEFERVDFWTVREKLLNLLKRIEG
Description: (§1) The reconstitution of the RNase P holoenzyme was performed as described in ([40],[19]). This protocol produces a homogeneous and functional ribozyme that can be crystallized by mixing P RNA and P protein in a 1:1.1 molar ratio in 1× TH buffer (33 mM Tris–HCl, 66 mM HEPES, pH 7.4) and 400 mM ammonium acetate (AmOAc). The mixture was heated to 95°C for 2 min in a water bath, then chilled on ice for 2 min, after which MgCl2 was added to a final concentration of 100 mM. […] This higher concentration was used in all experiments described herein. The holoenzyme was further incubated at 50°C for 10 min and 37°C for 40 min. The final concentration of holoenzyme was 333 nM (35.6 μg/ml of P RNA and 4.7 μg/ml of P protein).
The minihelix (Mh) substrate (Figure 1A) was adopted from a previously characterized RNase P substrate, pMini3bpUG ([32],[33]) and coupled to either Black Hole Quencher 1 (BHQ1) or Black Hole Quencher 2 (BHQ2) at the 5′-end and Alexa Fluor 488 at the 3′-end. This probe was purchased either from Sigma-Aldrich or Integrated DNA Technologies (IDT). A requested scale of […] yielded between 6.3 and 20 nmol (57.5 to 181 μg, enough for 1300–4000 reactions depending on the experimental substrate concentration). Before use, the minihelix was diluted from a 100 μM stock (dissolved in water) to 3.6 μM in activity buffer H (33 mM Tris–HCl, 66 mM HEPES, pH 7.4, 400 mM AmOAc and 100 mM MgCl2).
(§2) Reactions were performed in a total volume of 20 μl. Pipetting was done by hand using multichannel pipettes. First, an 18 μl reaction mixture containing 16.5 μl of activity buffer (H for Mh or L supplemented with 10% PEG 200 for bipartite pre-tRNA) and 270 nM (Mh) or 135 nM (bipartite pre-tRNA) (1.5 or 0.7 μl of the 3.6 μM stock) of the fluorescent substrate probe was pre-incubated on ice for at least 5 m in a black polystyrene 384-well microtiter microplate with a flat transparent bottom (Corning ref 3540). The holoenzyme was then added at a final concentration of 33 nM (2 μl of a 333 nM stock) in 1× TH buffer and mixed. Kinetic activity was monitored in a Synergy MX Multimode Detector (BioTek) at 37°C with rapid agitation. At least 20 readings were taken per well every 15 s. The probe was excited at 485 nm, and its emission was monitored at 535 nm with an integration time of 1 s. From the plots of relative fluorescent units (RFU) versus time, linear regression was used to determine the slopes in the linear portion of the curves, using at least 12 data points to obtain initial velocities. Non-linear fitting to obtain the Michaelis–Menten parameters was performed using GraphPad Prism® 6.01 software.
Supplementary Figure 3. FRET assays of RNase P with the fluorescent substrate are reproducible. (A) Representative plots of kinetic assays performed in a single run. The standard assay (SA), (+), was performed at 37° C in a total volume of 20 µL and contained RNase P holoenzyme at 33 nM, substrate minihelix (Mh) at 270 nM, 10% DMSO and activity buffer (AB).
The negative control assay (-) contained 100 mM CaCl2 in place of MgCl2. Ten to twelve wells were monitored simultaneously in a typical assay. (B) Zoomed view of the linear region of the kinetic assays shown in panel A. Fluorescence readings were performed every 15-20 seconds.
Linear regression calculations were done using the GraphPad Prism 7 software. (C) The coefficient Z’-factor (1) was used as an indicator of reproducibility and was calculated based on the relative fluorescence units (RFU) in the plateau phase (taken at 20 minutes). The Z’-factor has a […]
presented in this work were either measured in triplicate or confirmed in subsequent assays. (D) […]
assay is robust. The IC50 values reported in Figures 1C and 2 were calculated according to this kinetic parameter. There is a negative drift in fluorescence in the case of the negative control.
However, it should be noted that the mean value of it (-279) is much smaller than the signal of the […]
positive control (3397). […]

[3] = target: T1, RNase P holoenzyme from Thermotoga maritima; experiment: Real-time fluorescence-based RNase P activity assay with bipartite pre-tRNA substrate; assay type: biochemical; settings: fluorescent bipartite pre-tRNA substrate, holoenzyme 33 nM, 10% PEG 200 in place of DMSO
Description: as §1
The bipartite pre-tRNA substrate derived from pre-tRNA^Phe from T. maritima (Supplementary Figure S13) was designed for the ease of chemical synthesis and conceived from the fact that the anticodon loop is not required for RNase P recognition (Reiter et al.). As for the Mh substrate, fluorescent bipartite pre-tRNA was coupled to Black Hole Quencher 1 (BHQ1) at the 5′-end of the 5′ oligo, and to Alexa Fluor 488 at the 3′-end of the 3′ oligo (see Supplementary Table S1). The probes were purchased from Integrated DNA Technologies (IDT). A requested scale of 250 nmol yielded 27.4 nmol (0.36 mg) for the 5′ oligo and 3.8 nmol (50 μg) for the 3′ fluorescent oligo. Before use, the probes were diluted from a 100 μM stock (dissolved in water) and assembled by mixing and heating to 3.6 μM in activity buffer L (Tris–HCl pH 7.4 33 mM, HEPES 66 mM, 100 mM AmOAc and 10 mM MgCl2).
as §2, with “software. […]” for “software.”

CN(C)c1ccc(C(=C2C=CC(=[N+](C)C)C=C2)c2ccc(N(C)C)cc2)cc1 [Gentian violet, tris(4-(dimethylamino)phenyl)methylium chloride, reference compound]
KD [1]: 8 µM
IC50 [2]: 7.3 ± 1.6 µM
IC50 [3]: 16.2 ± 2.1 µM
